For this assay, the system named is Bombyx mori. In words: Insecticidal activity against po dosed third-instar larvae of Bombyx mori assessed as gram of diet. It is filed as functional.
`CC(=O)N1CC[C@@]23c4ccccc4N[C@@H]4N(C)c5cccc6c5[C@@]42CCN([C@@H]13)[C@@H]6[C@H]1OC1(C)C` [COMMUNESIN A]: the LD50 amounted to 150 mg/kg.
Regarding `C/C=C/C=C/C(=O)N1CC[C@@]23c4ccccc4N[C@@H]4N(C)c5cccc6c5[C@@]42CCN([C@@H]13)[C@@H]6[C@H]1OC1(C)C` [COMMUNESIN B], the LD50 is 5 mg/kg.
Then `C/C=C/C=C/C(=O)N1CC[C@@]23c4ccccc4N[C@@H]4Nc5cccc6c5[C@@]42CCN([C@@H]13)[C@@H]6[C@H]1OC1(C)C` [COMMUNESIN C], with 300 mg/kg; and `C/C=C/C=C/C(=O)N1CC[C@@]23c4ccccc4N[C@@H]4N(C=O)c5cccc6c5[C@@]42CCN([C@@H]13)[C@@H]6[C@H]1OC1(C)C` [COMMUNESIN D], with 80 mg/kg.
As for `CC(=O)N1CC[C@@]23c4ccccc4N[C@@H]4N(C)c5cccc6c5[C@@]42CCN([C@@H]6C=C(C)C)[C@@H]13` [COMMUNESIN E], the LD50 came to 80 mg/kg.
